Data published in ChEMBL document CHEMBL3046781, “Resistance of Helicoverpa assulta (Guenée) (Lepidoptera: Noctuidae) to fenvalerate, phoxim and methomyl in China” (2009).

Legend:
Format in all cases: functional
Helicoverpa assulta [1] = test: Resistance factor, ratio of LD50 for sixth-instar larvae of Helicoverpa assulta FJ2 to LD50 for sixth-instar larvae of Helicoverpa assulta at 1.8 to 183360 mg/l
Helicoverpa assulta [2] = test: Resistance factor, ratio of LD50 for sixth-instar larvae of Helicoverpa assulta SD1 to LD50 for sixth-instar larvae of Helicoverpa assulta at 1.8 to 183360 mg/l
Helicoverpa assulta [3] = test: Resistance factor, ratio of LD50 for sixth-instar larvae of Helicoverpa assulta YN4 to LD50 for sixth-instar larvae of Helicoverpa assulta at 1.8 to 183360 mg/l
Helicoverpa assulta [4] = test: Resistance factor, ratio of LD50 for sixth-instar larvae of Helicoverpa assulta SD2 to LD50 for sixth-instar larvae of Helicoverpa assulta at 1.8 to 183360 mg/l
Helicoverpa assulta [5] = test: Resistance factor, ratio of LD50 for sixth-instar larvae of Helicoverpa assulta YN6 to LD50 for sixth-instar larvae of Helicoverpa assulta at 1.8 to 183360 mg/l
Helicoverpa assulta [6] = test: Insecticidal activity against sixth-instar larvae of Helicoverpa assulta SD1 at 1.8 to 183360 mg/l after 48 hr by chi-squared analysis
Helicoverpa assulta [7] = test: Resistance factor, ratio of LD50 for sixth-instar larvae of Helicoverpa assulta YN3 to LD50 for sixth-instar larvae of Helicoverpa assulta at 1.8 to 183360 mg/l
Helicoverpa assulta [8] = test: Resistance factor, ratio of LD50 for sixth-instar larvae of Helicoverpa assulta GZ3 to LD50 for sixth-instar larvae of Helicoverpa assulta at 1.8 to 183360 mg/l
Helicoverpa assulta [9] = test: Resistance factor, ratio of LD50 for sixth-instar larvae of Helicoverpa assulta GZ5 to LD50 for sixth-instar larvae of Helicoverpa assulta at 1.8 to 183360 mg/l
Helicoverpa assulta [10] = test: Resistance factor, ratio of LD50 for sixth-instar larvae of Helicoverpa assulta HN1 to LD50 for sixth-instar larvae of Helicoverpa assulta at 1.8 to 183360 mg/l
Helicoverpa assulta [11] = test: Insecticidal activity against sixth-instar larvae of Helicoverpa assulta YN8 at 1.8 to 183360 mg/l after 48 hr by chi-squared analysis
Helicoverpa assulta [12] = test: Resistance factor, ratio of LD50 for sixth-instar larvae of Helicoverpa assulta FJ3 to LD50 for sixth-instar larvae of Helicoverpa assulta at 1.8 to 183360 mg/l
Helicoverpa assulta [13] = test: Insecticidal activity against sixth-instar larvae of Helicoverpa assulta at 21 to 3390 mg/l after 48 hr by chi-squared analysis
Helicoverpa assulta [14] = test: Insecticidal activity against sixth-instar larvae of Helicoverpa assulta FJ1 at 21 to 3390 mg/l after 48 hr by chi-squared analysis
Helicoverpa assulta [15] = test: Insecticidal activity against sixth-instar larvae of Helicoverpa assulta SD2 at 21 to 3390 mg/l after 48 hr by chi-squared analysis
Helicoverpa assulta [16] = test: Insecticidal activity against sixth-instar larvae of Helicoverpa assulta GZ5 at 21 to 3390 mg/l after 48 hr by chi-squared analysis
Helicoverpa assulta [17] = test: Resistance factor, ratio of LD50 for sixth-instar larvae of Helicoverpa assulta FJ3 to LD50 for sixth-instar larvae of Helicoverpa assulta at 21 to 3390 mg/l
Helicoverpa assulta [18] = test: Insecticidal activity against sixth-instar larvae of Helicoverpa assulta GZ2 at 21 to 3390 mg/l after 48 hr by chi-squared analysis
Helicoverpa assulta [19] = test: Insecticidal activity against sixth-instar larvae of Helicoverpa assulta YN4 at 21 to 3390 mg/l after 48 hr by chi-squared analysis
Helicoverpa assulta [20] = test: Resistance factor, ratio of LD50 for sixth-instar larvae of Helicoverpa assulta YN5 to LD50 for sixth-instar larvae of Helicoverpa assulta at 21 to 3390 mg/l
Helicoverpa assulta [21] = test: Insecticidal activity against sixth-instar larvae of Helicoverpa assulta YN7 at 21 to 3390 mg/l after 48 hr by chi-squared analysis
Helicoverpa assulta [22] = test: Insecticidal activity against sixth-instar larvae of Helicoverpa assulta YN6 at 21 to 3390 mg/l after 48 hr by chi-squared analysis
Helicoverpa assulta [23] = test: Resistance factor, ratio of LD50 for sixth-instar larvae of Helicoverpa assulta YN2 to LD50 for sixth-instar larvae of Helicoverpa assulta at 39 to 12630 mg/l
Helicoverpa assulta [24] = test: Insecticidal activity against sixth-instar larvae of Helicoverpa assulta AH1 at 39 to 12630 mg/l after 48 hr by chi-squared analysis
Helicoverpa assulta [25] = test: Insecticidal activity against sixth-instar larvae of Helicoverpa assulta YN3 at 39 to 12630 mg/l after 48 hr by chi-squared analysis
Helicoverpa assulta [26] = test: Resistance factor, ratio of LD50 for sixth-instar larvae of Helicoverpa assulta GZ5 to LD50 for sixth-instar larvae of Helicoverpa assulta at 39 to 12630 mg/l
Helicoverpa assulta [27] = test: Resistance factor, ratio of LD50 for sixth-instar larvae of Helicoverpa assulta YN1 to LD50 for sixth-instar larvae of Helicoverpa assulta at 39 to 12630 mg/l
Helicoverpa assulta [28] = test: Resistance factor, ratio of LD50 for sixth-instar larvae of Helicoverpa assulta FJ1 to LD50 for sixth-instar larvae of Helicoverpa assulta at 39 to 12630 mg/l
Helicoverpa assulta [29] = test: Insecticidal activity against sixth-instar larvae of Helicoverpa assulta AH3 at 39 to 12630 mg/l after 48 hr by chi-squared analysis
Helicoverpa assulta [30] = test: Insecticidal activity against sixth-instar larvae of Helicoverpa assulta HN2 at 39 to 12630 mg/l after 48 hr by chi-squared analysis
Helicoverpa assulta [31] = test: Insecticidal activity against sixth-instar larvae of Helicoverpa assulta YN4 at 39 to 12630 mg/l after 48 hr by chi-squared analysis
Helicoverpa assulta [32] = test: Resistance factor, ratio of LD50 for sixth-instar larvae of Helicoverpa assulta YN6 to LD50 for sixth-instar larvae of Helicoverpa assulta at 39 to 12630 mg/l
Helicoverpa assulta [33] = test: Insecticidal activity against sixth-instar larvae of Helicoverpa assulta at 39 to 12630 mg/l after 48 hr by chi-squared analysis
Helicoverpa assulta [34] = test: Insecticidal activity against sixth-instar larvae of Helicoverpa assulta SD1 at 39 to 12630 mg/l after 48 hr by chi-squared analysis
Helicoverpa assulta [35] = test: Insecticidal activity against sixth-instar larvae of Helicoverpa assulta HN1 at 39 to 12630 mg/l after 48 hr by chi-squared analysis

## CC(C)C(C(=O)OC(C#N)c1cccc(Oc2ccccc2)c1)c1ccc(Cl)cc1 (stereo not drawn) [FENVALERATE]
Helicoverpa assulta [1]
  Ratio: 12.9
Helicoverpa assulta [2]
  Ratio: 9.8
Helicoverpa assulta [3]
  Ratio: 9231
Helicoverpa assulta [4]
  Ratio: 12
Helicoverpa assulta [5]
  Ratio: 4115
Helicoverpa assulta [6]
  LD90: 14.8 µg/g
Helicoverpa assulta [6]; Helicoverpa assulta, SD1, 48 h
  LD50: 1.59 mg/kg
Helicoverpa assulta [7]
  Ratio: 1403
Helicoverpa assulta [8]
  Ratio: 824
Helicoverpa assulta [9]
  Ratio: 189
Helicoverpa assulta [10]
  Ratio: 64.9
Helicoverpa assulta [11]
  LD90: 9100 µg/g
Helicoverpa assulta [11]; Helicoverpa assulta, YN8, 48 h
  LD50: 2860 mg/kg
Helicoverpa assulta [12]
  Ratio: 9.06

## CNC(=O)ON=C(C)SC [METHOMYL]
Helicoverpa assulta [13]
  LD90: 4.1 µg/g
Helicoverpa assulta [13]; Helicoverpa assulta, 48 h
  LD50: 1.45 mg/kg
Helicoverpa assulta [14]
  LD90: 67.8 µg/g
Helicoverpa assulta [14]; Helicoverpa assulta, FJ1, 48 h
  LD50: 21.1 mg/kg
Helicoverpa assulta [15]
  LD90: 41.8 µg/g
Helicoverpa assulta [15]; Helicoverpa assulta, SD2, 48 h
  LD50: 8.92 mg/kg
Helicoverpa assulta [16]
  LD90: 64.6 µg/g
Helicoverpa assulta [16]; Helicoverpa assulta, GZ5, 48 h
  LD50: 21 mg/kg
Helicoverpa assulta [17]
  Ratio: 16.3
Helicoverpa assulta [18]
  LD90: 52.6 µg/g
Helicoverpa assulta [18]; Helicoverpa assulta, GZ2, 48 h
  LD50: 20.1 mg/kg
Helicoverpa assulta [19]
  LD90: 62.2 µg/g
Helicoverpa assulta [19]; Helicoverpa assulta, YN4, 48 h
  LD50: 16.7 mg/kg
Helicoverpa assulta [20]
  Ratio: 9.87
Helicoverpa assulta [21]
  LD90: 143 µg/g
Helicoverpa assulta [21]; Helicoverpa assulta, YN7, 48 h
  LD50: 39 mg/kg
Helicoverpa assulta [22]
  LD90: 66.2 µg/g
Helicoverpa assulta [22]; Helicoverpa assulta, YN6, 48 h
  LD50: 19.7 mg/kg

## CCOP(=S)(OCC)O/N=C(\C#N)c1ccccc1 [PHOXIM]
Helicoverpa assulta [23]
  Ratio: 14.9
Helicoverpa assulta [24]
  LD90: 819 µg/g
Helicoverpa assulta [24]; Helicoverpa assulta, AH1, 48 h
  LD50: 119 mg/kg
Helicoverpa assulta [25]
  LD90: 56.4 µg/g
Helicoverpa assulta [25]; Helicoverpa assulta, YN3, 48 h
  LD50: 29.2 mg/kg
Helicoverpa assulta [26]
  Ratio: 7.1
Helicoverpa assulta [27]
  Ratio: 8.72
Helicoverpa assulta [28]
  Ratio: 7.13
Helicoverpa assulta [29]
  LD90: 181 µg/g
Helicoverpa assulta [29]; Helicoverpa assulta, AH3, 48 h
  LD50: 33.3 mg/kg
Helicoverpa assulta [30]
  LD90: 19.9 µg/g
Helicoverpa assulta [30]; Helicoverpa assulta, HN2, 48 h
  LD50: 8.22 mg/kg
Helicoverpa assulta [31]
  LD90: 94 µg/g
Helicoverpa assulta [31]; Helicoverpa assulta, YN4, 48 h
  LD50: 39.6 mg/kg
Helicoverpa assulta [32]
  Ratio: 9.17
Helicoverpa assulta [33]
  LD90: 5.54 µg/g
Helicoverpa assulta [33]; Helicoverpa assulta, 48 h
  LD50: 2.34 mg/kg
Helicoverpa assulta [34]
  LD90: 26.5 µg/g
Helicoverpa assulta [34]; Helicoverpa assulta, SD1, 48 h
  LD50: 11.9 mg/kg
Helicoverpa assulta [35]
  LD90: 23.1 µg/g
Helicoverpa assulta [35]; Helicoverpa assulta, HN1, 48 h
  LD50: 10.5 mg/kg
